In ChEMBL document CHEMBL1134810, “G-quadruplex DNA binding by a series of carbocyanine dyes” (Bioorg Med Chem Lett, 2001):

Tests used:
[1] = molecular target: Telomerase reverse transcriptase (Homo sapiens) (UniProt O14746); assay: Inhibition of human telomerase activity in S100 HeLa cell extract at […] carbocyanine concentration.; format: cell-free
[2] = molecular target: DNA polymerase I, thermostable (Thermus aquaticus) (UniProt P19821); assay: G4'-DNA binding-dependent Taq polymerase pausing is the ratio of pause/full bands at 20 uM carbocyanine concentration relative to control; expressed as Normalized ratio of G4'-DNA stop product
[3] = molecular target: DNA polymerase I, thermostable (Thermus aquaticus) (UniProt P19821); assay: Taq polymerase inhibition at […] concentration; details: 20 uM

Chain of DNA polymerase I, thermostable (Thermus aquaticus) (P19821 whole entry): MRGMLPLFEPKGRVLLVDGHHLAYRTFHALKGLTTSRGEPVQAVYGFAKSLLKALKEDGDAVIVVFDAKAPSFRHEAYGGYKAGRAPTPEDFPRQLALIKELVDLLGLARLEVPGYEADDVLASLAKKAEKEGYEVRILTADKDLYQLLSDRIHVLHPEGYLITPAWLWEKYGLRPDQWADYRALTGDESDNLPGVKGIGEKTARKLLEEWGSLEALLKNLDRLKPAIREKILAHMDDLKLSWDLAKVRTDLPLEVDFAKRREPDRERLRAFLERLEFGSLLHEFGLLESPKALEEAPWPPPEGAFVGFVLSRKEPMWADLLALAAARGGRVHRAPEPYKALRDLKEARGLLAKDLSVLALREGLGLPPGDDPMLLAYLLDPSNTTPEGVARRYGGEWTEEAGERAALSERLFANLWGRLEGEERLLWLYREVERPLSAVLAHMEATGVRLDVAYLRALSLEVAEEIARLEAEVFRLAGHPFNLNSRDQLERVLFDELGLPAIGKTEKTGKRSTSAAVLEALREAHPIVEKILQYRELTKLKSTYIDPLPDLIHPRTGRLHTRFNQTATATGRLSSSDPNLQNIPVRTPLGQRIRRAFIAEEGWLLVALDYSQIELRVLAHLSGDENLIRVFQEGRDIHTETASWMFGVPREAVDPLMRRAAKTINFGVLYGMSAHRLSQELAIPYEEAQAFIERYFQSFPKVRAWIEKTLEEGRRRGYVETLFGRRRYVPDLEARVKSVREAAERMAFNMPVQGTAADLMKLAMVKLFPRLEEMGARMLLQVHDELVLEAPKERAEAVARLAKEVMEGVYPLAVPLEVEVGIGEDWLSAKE
Chain of Telomerase reverse transcriptase (Homo sapiens) (O14746 whole entry): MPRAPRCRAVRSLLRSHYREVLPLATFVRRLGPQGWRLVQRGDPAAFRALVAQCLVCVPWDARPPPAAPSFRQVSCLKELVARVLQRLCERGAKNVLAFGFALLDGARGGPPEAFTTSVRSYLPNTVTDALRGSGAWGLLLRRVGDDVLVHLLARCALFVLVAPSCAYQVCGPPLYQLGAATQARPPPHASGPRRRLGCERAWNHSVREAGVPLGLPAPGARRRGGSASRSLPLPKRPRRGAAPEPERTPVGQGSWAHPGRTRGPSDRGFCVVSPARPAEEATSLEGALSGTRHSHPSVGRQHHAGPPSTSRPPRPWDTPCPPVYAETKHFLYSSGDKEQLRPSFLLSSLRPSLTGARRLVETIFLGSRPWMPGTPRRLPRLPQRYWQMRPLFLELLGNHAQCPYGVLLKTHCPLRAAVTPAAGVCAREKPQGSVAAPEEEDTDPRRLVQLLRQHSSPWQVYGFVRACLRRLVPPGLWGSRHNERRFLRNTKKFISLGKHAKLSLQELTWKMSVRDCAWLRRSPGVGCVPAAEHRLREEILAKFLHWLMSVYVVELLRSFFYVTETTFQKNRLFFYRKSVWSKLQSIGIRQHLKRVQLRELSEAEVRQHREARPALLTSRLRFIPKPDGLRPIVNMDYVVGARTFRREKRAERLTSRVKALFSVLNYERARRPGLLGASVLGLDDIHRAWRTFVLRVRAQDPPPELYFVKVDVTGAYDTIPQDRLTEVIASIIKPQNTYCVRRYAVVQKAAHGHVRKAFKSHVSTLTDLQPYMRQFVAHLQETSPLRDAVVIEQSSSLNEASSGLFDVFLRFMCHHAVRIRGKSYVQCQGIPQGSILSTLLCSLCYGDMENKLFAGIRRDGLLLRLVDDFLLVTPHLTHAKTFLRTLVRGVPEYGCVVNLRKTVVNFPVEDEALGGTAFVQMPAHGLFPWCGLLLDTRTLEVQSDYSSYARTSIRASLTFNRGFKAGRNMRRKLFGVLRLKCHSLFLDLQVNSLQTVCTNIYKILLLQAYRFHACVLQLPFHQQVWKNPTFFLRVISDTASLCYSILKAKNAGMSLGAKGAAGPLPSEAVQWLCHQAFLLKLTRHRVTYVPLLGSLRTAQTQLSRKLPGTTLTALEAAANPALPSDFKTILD

Row | SMILES | inhibition [1] [%] | Activity [2] | inhibition [3] [%]
1 | CCN1/C(=C/C=C/c2oc3ccccc3[n+]2CC)Oc2ccccc21 | < 10 | 0.9 | 15
2 | CCN1/C(=C/C=C/c2sc3ccccc3[n+]2CC)Sc2ccccc21 | 35 | 4.4 | 14
3 | CCN1/C(=C/C=C/C=C/c2oc3ccccc3[n+]2CC)Oc2ccccc21 | < 10 | 1.6 | 27

Now from value to compound:

Row | inhibition [1] [%] | Activity [2] | inhibition [3] [%] | SMILES
4 | < 10 | 1.1 | 1.1 | CCN1/C(=C/C=C/C=C/C=C/c2sc3ccccc3[n+]2CC)Sc2ccccc21
5 | < 10 | – | 91 | CCN1C(=CC=CC=Cc2sc3ccccc3[n+]2CC)Sc2ccccc21
